Values quoted from earlier work, collected in patent publication US11577235B1, “Layered catalyst reactor systems and processes for hydrotreatment of hydrocarbon feedstocks” (Chevron U.S.A. Inc., priority 2021, dated 2023).

Tested on: rats
Conditions: single oral dose to rats

| Molecule | LD50 [mg/kg] |
| --- | --- |
| thio-diglycolic acid | 500 |
| O=CC(=O)O [glyoxylic] | 3000 |
